The target of the test is T1, Gastricsin (Rattus norvegicus, UniProt P04073).
T1 sequence (P04073 whole entry): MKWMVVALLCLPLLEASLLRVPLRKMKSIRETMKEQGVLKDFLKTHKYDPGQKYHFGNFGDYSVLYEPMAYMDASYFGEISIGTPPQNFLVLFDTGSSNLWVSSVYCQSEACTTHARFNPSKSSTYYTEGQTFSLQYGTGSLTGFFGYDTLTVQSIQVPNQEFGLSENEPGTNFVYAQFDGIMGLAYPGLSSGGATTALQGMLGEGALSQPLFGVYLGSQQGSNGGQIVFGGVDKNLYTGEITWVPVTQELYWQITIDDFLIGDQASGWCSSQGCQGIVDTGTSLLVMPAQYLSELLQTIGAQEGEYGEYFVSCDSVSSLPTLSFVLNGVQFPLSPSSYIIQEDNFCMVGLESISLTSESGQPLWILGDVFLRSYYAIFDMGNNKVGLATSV
Briefly: ChEBML_154148. The text has this:
Inhibition of enzyme pepsin

For the molecule `CCC(NC(=O)[C@H](C)NC(=O)[C@H](C)C[C@H](O)[C@H](CC(C)C)NC(=O)[C@@H](NC(=O)CC(C)C)C(C)C)C(=O)O` (stereo partly drawn), the Ki (commonly the equilibrium dissociation constant of an inhibitor or competing ligand from its target) was 3 nM.
For `CCC(NC(=O)[C@H](C)NC(=O)[C@H](C)CC(=O)[C@H](CC(C)C)NC(=O)[C@@H](NC(=O)CC(C)C)C(C)C)C(=O)O` (stereo partly drawn) the value was 110 nM; for `CC(C)CCNC(=O)[C@H](C)NC(=O)C[C@H](O)[C@H](CC(C)C)NC(=O)[C@@H](NC(=O)CC(C)C)C(C)C` [3-Hydroxy-6-methyl-4-[3-methyl-2-(3-methyl-butyrylamino)-butyrylamino]-heptanoic acid [1-(3-methyl-butylcarbamoyl)-ethyl]-amide], 3 nM.

Source of the values: BindingDB's records for doi:10.1021/jm00126a039 (University of Wisconsin-Madison, 1989).
